Experimental data published in US4992450A, “Piperidine opioid antagonists” (Eli Lilly and Company, priority 1989, dated 1991).
Structures can show the parent of a compound that is named as a salt. Where two headings read alike, the source gives them in different places.

How the values were obtained:
[1] = tested on: meal fed obese Zucker rats; test: Food consumption assay in meal fed obese Zucker rats; assay type: in vivo; conditions: Rattus norvegicus, sc, 4 h, amount to decrease food consumption 20% during first four hours
Excerpt: The following assay was employed to evaluate the ability of the compounds of the invention to effect food and water consumption of meal fed obese Zucker rats.
According to this procedure, 3-4 month old obese Zucker rats were trained to eat food daily from 8:00 A.M. to 4:00 P.M. only, such that the body weight gain approximates that if the rats were fed ad libitum. These rats were allowed to consume water at all times. Four groups of rats with four rats in each group, two female and two male, were formed. One group served as control for the other three groups each day. Each of the other groups were given a subcutaneous dose of the compound to be evaluated. The test compound was formulated in physiological saline containing 10% dimethylsulfoxide by volume.
Animals remained drug free for 4 days before the next test. Food and water consumption of each rat were measured for the first four hours. A test on one compound was run for three consecutive days. The drug effect was expressed as the percent of the control for that test day.
In the Table, column 1 gives the Example Number of the compound evaluated; and column 2 provides the ED20 in mg/kg, wherein ED20 represents the amount of compound evaluated in mg/kg necessary to decrease food consumption 20% during the first four hours of the experiment.

kappa receptor = target: T1, kappa receptor (Mus musculus, UniProt P33534); test: in vivo; design: species or system CF-1 male mice; conditions: sc, read-out: Kappa AD50
T1 construct: Five CF-1 male mice (Charles River, Portage, Mich.); from tissue; host or cells: whole living CF-1 male mice (in vivo)
T1 sequence (P33534 whole entry): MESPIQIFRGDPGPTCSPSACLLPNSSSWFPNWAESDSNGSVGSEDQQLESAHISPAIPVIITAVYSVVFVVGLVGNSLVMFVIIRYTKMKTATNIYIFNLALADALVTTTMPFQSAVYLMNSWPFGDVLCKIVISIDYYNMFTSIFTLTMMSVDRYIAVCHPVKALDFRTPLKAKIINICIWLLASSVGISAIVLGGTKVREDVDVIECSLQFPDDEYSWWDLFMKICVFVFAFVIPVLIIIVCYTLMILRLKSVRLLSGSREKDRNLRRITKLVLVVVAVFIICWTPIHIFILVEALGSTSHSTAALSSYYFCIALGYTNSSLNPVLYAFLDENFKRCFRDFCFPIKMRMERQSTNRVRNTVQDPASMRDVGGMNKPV

mu receptor = target: T2, mu receptor (Mus musculus, UniProt P42866); test: Mouse writhing assay, antagonism of morphine analgesia (mu); assay type: in vivo, CF-1 male mice; conditions: sc, read-out: Mu AD50
T2 construct: Five CF-1 male mice (Charles River, Portage, Mich.); from tissue; host or cells: whole living CF-1 male mice (in vivo)
T2 sequence (P42866 whole entry): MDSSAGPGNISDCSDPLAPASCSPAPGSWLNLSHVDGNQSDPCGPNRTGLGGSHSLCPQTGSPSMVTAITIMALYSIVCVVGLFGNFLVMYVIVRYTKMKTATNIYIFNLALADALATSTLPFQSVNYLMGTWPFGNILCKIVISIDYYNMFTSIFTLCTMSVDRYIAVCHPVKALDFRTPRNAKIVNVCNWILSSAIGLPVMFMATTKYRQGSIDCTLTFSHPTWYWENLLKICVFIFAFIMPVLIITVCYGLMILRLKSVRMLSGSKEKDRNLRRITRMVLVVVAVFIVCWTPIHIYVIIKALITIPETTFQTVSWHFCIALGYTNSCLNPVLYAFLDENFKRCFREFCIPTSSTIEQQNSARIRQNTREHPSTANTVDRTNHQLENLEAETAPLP

kappa receptors = target: T3, kappa receptors (Rattus norvegicus, UniProt P34975); test: Rat diuresis assay, antagonism of bremazocine-induced urination; assay type: in vivo, male Long-Evans hooded rats; conditions: sc, rats, s.c., urinary output reduced to 50% of effect of 0.08 mg/kg bremazocine alone
T3 construct: sixty male Long-Evans hooded rats; from tissue; host or cells: whole living male Long-Evans hooded rats (in vivo)
T3 sequence (P34975 whole entry): as the sequence (P33534 whole entry) above, with D11E, S17A, S51P, A308V counted along it
Procedure: As such, the compounds of the invention were also evaluated in a rat diuresis assay conducted according to the following procedure described by Leander et al. in Drug Development Research 4:421-427 (1984) in an effort to further establish the ability of the present compounds to block kappa receptors.
According to this procedure, sixty male Long-Evans hooded rats (Charles River Breeding Laboratories, Portage, Mich.) weighing between about 300 and 500 grams each were housed either individually or in pairs in a temperature-controlled (23° C.) colony room which was illuminated between 6:00 A.M. and 6:00 P.M. Rodent chow and tap water were continuously available except during the measurement of urine output. The animals were used repeatedly, but no more frequently than twice a week.
The animals were then injected with various doses of the test compounds. To measure urine output, the animals were removed from the home cages, weighed, injected and placed in metabolism cages for 5 hr. Excreted urine was funneled into graduated cylinders. Cumulative urine volumes were determined at designated time intervals, usually at 2 and 5 hr after injection.
The compounds which are salt forms were dissolved in distilled water. If necessary, the compounds were dissolved in distilled water with the aid of either a few drops of lactic acid or hydrochloric acid and gentle warming. All injections were s.c. in a volume of 1 ml/kg of body weight. During tests for antagonism, two injections were given, one on each side of the body.
In the Table, column 1 provides the Example Number of the compound tested; column 2, the amount of compound in mg/kg necessary to reduce the urinary output to 50% of the effect produced by 0.08 mg/kg of bremazocine alone two hours after injection of bremazocine and the test compound; and column 3, the amount of compound in mg/kg necessary to reduce the urinary output to 50% of the effect produced by 0.08 mg/kg of bremazocine alone five hours after injection of bremazocine and the test compound.

[2] = 2 h, two hours after injection, read-out: AD50 Two Hours
[3] = 5 h, five hours after injection, read-out: AD50 Five Hours

## C[C@H]1CN(CCC(=O)c2ccccc2)CC[C@@]1(C)c1cccc(O)c1 (relative stereo) [Compound C, 3-[4β-(3-Hydroxyphenyl)-3β,4α-dimethylpiperidino]propiophenone maleate, reference compound]
[1]
  ED20: 3.72 mg/kg
Kappa receptor
  ED50: 4.5 mg/kg
Mu receptor
  ED50: 0.14 mg/kg

## C[C@H]1CN(CCC(O)C2CCCC2)CC[C@@]1(C)c1cccc(O)c1 (relative stereo) [Example 18, trans-(±)-1-[R,S-(1-Cyclopentylpropanol-3-yl)]-3,4-dimethyl-4-(3-hydroxyphenyl)piperidine hydrochloride]
[1]
  ED20: 0.07 mg/kg
Kappa receptor
  ED50: 0.08 mg/kg
Mu receptor
  ED50: 0.04 mg/kg

## CC(C)C(O)CCN1CC[C@@](C)(c2cccc(O)c2)[C@@H](C)C1 (relative stereo) [Example 20, trans-(±)-1-[R,S-(3-Hydroxy-4-methylpentyl)]-3,4-dimethyl-4-(3-hydroxyphenyl)piperidine hydrochloride]
[1]
  ED20: 0.91 mg/kg
Kappa receptor
  ED50: 0.35 mg/kg
Mu receptor
  ED50: 0.14 mg/kg

## CCCC(O)CCN1CC[C@@](C)(c2cccc(O)c2)[C@@H](C)C1 (relative stereo) [Example 30, trans-(±)-1-[R,S-(3-Hydroxyhexyl)]-3,4-dimethyl-4-(3-hydroxyphenyl)piperidine hydrochloride]
Kappa receptor
  ED50: 0.47 mg/kg
Mu receptor
  ED50: 0.11 mg/kg

## CCCCCCN1CC[C@@](C)(c2cccc(O)c2)[C@@H](C)C1 (stereo in doubt) [Example 1, trans-(+)-1-(n-Hexyl)-3,4-dimethyl-4-(3-hydroxyphenyl)piperidine hydrochloride]
[1]
  ED20: 0.08 mg/kg
Kappa receptor
  ED50: 0.22 mg/kg
Mu receptor
  ED50: 0.26 mg/kg

## CCCCCCN1CC[C@](C)(c2cccc(O)c2)[C@H](C)C1 (stereo in doubt) [Example 2, trans-(-)-1-(n-Hexyl)-3,4-dimethyl-4-(3-hydroxyphenyl)piperidine hydrochloride]
[1]
  ED20: 1.25 mg/kg
Kappa receptor
  ED50: 0.29 mg/kg
Mu receptor
  ED50: 0.21 mg/kg

## CC(C)CCCCN1CC[C@@](C)(c2cccc(O)c2)[C@@H](C)C1 (stereo in doubt) [Example 28, trans-(+)-1-(5-Methylhexyl)-3,4-dimethyl-4-(3-hydroxyphenyl)piperidine hydrochloride]
[1]
  ED20: 0.12 mg/kg
Kappa receptor
  ED50: 0.22 mg/kg
Mu receptor
  ED50: 0.08 mg/kg

## CC(C)CCCCN1CC[C@](C)(c2cccc(O)c2)[C@H](C)C1 (stereo in doubt) [Example 29, trans-(-)-1-(5-Methylhexyl)-3,4-dimethyl-4-(3-hydroxyphenyl)piperidine hydrochloride]
[1]
  ED20: 0.31 mg/kg
Kappa receptor
  ED50: 0.89 mg/kg
Mu receptor
  ED50: 0.35 mg/kg

## C[C@H]1CN(CCCc2cccs2)CC[C@@]1(C)c1cccc(O)c1 (stereo in doubt) [Example 36, trans-(+)-1-[3-(2-Thienyl)propyl]-3,4-dimethyl-4-(3-hydroxyphenyl)piperidine]
Kappa receptors; [2]
  ED50: 4.65 mg/kg
Kappa receptors; [3]
  ED50: 1.65 mg/kg
[1]
  ED20: 0.05 mg/kg
Kappa receptor
  ED50: 0.11 mg/kg
Mu receptor
  ED50: 0.05 mg/kg

## C[C@@H]1CN(CCCc2cccs2)CC[C@]1(C)c1cccc(O)c1 (stereo in doubt) [Example 37, trans-(-)-1-[3-(2-Thienyl)propyl]-3,4-dimethyl-4-(3-hydroxyphenyl)piperidine hydrochloride]
Kappa receptors; [2]
  ED50: 2.92 mg/kg
Kappa receptors; [3]
  ED50: 1.66 mg/kg
[1]
  ED20: 0.19 mg/kg
Kappa receptor
  ED50: 0.65 mg/kg
Mu receptor
  ED50: 0.24 mg/kg

## C=CCN1CC[C@]23c4c5ccc(O)c4O[C@H]2C(=O)CC[C@@]3(O)[C@H]1C5 [Compound E, naloxone, reference compound]
[1]
  ED20: 1.4 mg/kg

## O=C1CC[C@@]2(O)[C@H]3Cc4ccc(O)c5c4[C@@]2(CCN3CC2CC2)[C@H]1O5 [Compound F, naltrexone, reference compound]
[1]
  ED20: 2.05 mg/kg

## CC1CN(CC2CCCC2)CCC1(C)c1cccc(O)c1 (stereo not drawn) [Example 5, trans-(±)-1-(Cyclopentylmethyl)-3,4-dimethyl-4-(3-hydroxyphenyl)piperidine hydrochloride]
Kappa receptors; [2]
  ED50: 1.91 mg/kg
Kappa receptors; [3]
  ED50: 0.92 mg/kg
Kappa receptor
  ED50: 0.54 mg/kg
Mu receptor
  ED50: 1.01 mg/kg

## CCCCCCCN1CCC(C)(c2cccc(O)c2)C(C)C1 (stereo not drawn) [Example 8, trans-(±)-1-(n-Heptyl)-3,4-dimethyl-4-(3-hydroxyphenyl)piperidine hydrochloride]
Kappa receptors; [2]
  ED50: 3.77 mg/kg
Kappa receptors; [3]
  ED50: 3.33 mg/kg
[1]
  ED20: 0.44 mg/kg
Kappa receptor
  ED50: 0.64 mg/kg
Mu receptor
  ED50: 0.21 mg/kg

## CC1CN(CCCC2CCCC2)CCC1(C)c1cccc(O)c1 (stereo not drawn) [Example 9, trans-(±)-1-(3-Cyclopentylpropyl)-3,4-dimethyl-4-(3-hydroxyphenyl)piperidine hydrochloride]
Kappa receptors; [2]
  ED50: 2.4 mg/kg
Kappa receptors; [3]
  ED50: 0.79 mg/kg
[1]
  ED20: 1.25 mg/kg
Kappa receptor
  ED50: 0.13 mg/kg
Mu receptor
  ED50: 0.12 mg/kg

## CC1CN(CCC(C)(C)C)CCC1(C)c1cccc(O)c1 (stereo not drawn) [Example 12, trans-(±)-1-(3,3-Dimethylbutyl)-3,4-dimethyl-4-(3-hydroxyphenyl)piperidine hydrochloride]
Kappa receptors; [2]
  ED50: 7.89 mg/kg
Kappa receptors; [3]
  ED50: 8.13 mg/kg
Kappa receptor
  ED50: 0.42 mg/kg
Mu receptor
  ED50: 0.56 mg/kg

## CC1CN(CCC2CCCCC2)CCC1(C)c1cccc(O)c1 (stereo not drawn) [Example 13, trans-(±)-1-(2-Cyclohexylethyl)-3,4-dimethyl-4-(3-hydroxyphenyl)piperidine hydrochloride]
[1]
  ED20: 4.56 mg/kg
Kappa receptor
  ED50: 0.12 mg/kg
Mu receptor
  ED50: 0.1 mg/kg

## CCCCCN1CCC(C)(c2cccc(O)c2)C(C)C1 (stereo not drawn) [Example 14, trans-(±)-1-(n-Pentyl)-3,4-dimethyl-4-(3-hydroxyphenyl)piperidine hydrochloride]
Kappa receptors; [2]
  ED50: 0.78 mg/kg
Kappa receptors; [3]
  ED50: 0.69 mg/kg
[1]
  ED20: 4.47 mg/kg
Kappa receptor
  ED50: 0.6 mg/kg
Mu receptor
  ED50: 0.37 mg/kg

## CCCCCCN1CCC(C)(c2cccc(O)c2)C(C)C1 (stereo not drawn) [Example 22, trans-(±)-1-(n-Hexyl)-3,4-dimethyl-4-(3-hydroxyphenyl)piperidine hydrochloride]
Kappa receptors; [2]
  ED50: 1.31 mg/kg
Kappa receptors; [3]
  ED50: 0.7 mg/kg
[1]
  ED20: 0.78 mg/kg
Kappa receptor
  ED50: 0.11 mg/kg
Mu receptor
  ED50: 0.05 mg/kg

## C[C@H]1CN(CC[C@@H](O)C2CCCCC2)CC[C@@]1(C)c1cccc(O)c1 [Example 25, trans-(+)-1-[R-(3-Hydroxy-3-cyclohexylpropyl)]-3,4-dimethyl-4-(3-hydroxyphenyl)piperidine]
[1]
  ED20: 0.13 mg/kg
Kappa receptor
  ED50: 0.36 mg/kg
Mu receptor
  ED50: 0.03 mg/kg

## CCCCCC(=O)CCN1CCC(C)(c2cccc(O)c2)C(C)C1 (stereo not drawn) [Example 32, trans-(±)-1-(3-Oxo-n-octyl)-3,4-dimethyl-4-(3-hydroxyphenyl)piperidine hydrochloride]
Kappa receptor
  ED50: 3.5 mg/kg
Mu receptor
  ED50: 0.17 mg/kg

## CC1CN(CCC(=O)C2CCCCC2)CCC1(C)c1cccc(O)c1 (stereo not drawn) [Example 33, trans-(±)-1-(3-Oxo-3-cyclohexylpropyl)-3,4-dimethyl-4-(3-hydroxyphenyl)piperidine hydrochloride]
Kappa receptor
  ED50: 0.26 mg/kg
Mu receptor
  ED50: 0.12 mg/kg

## CC1CN(CCCc2cccs2)CCC1(C)c1cccc(O)c1 (stereo not drawn) [Example 35, trans-(±)-1-[3-(2-Thienyl)propyl]-3,4-dimethyl-4-(3-hydroxyphenyl)piperidine hydrochloride]
Kappa receptors; [2]
  ED50: 2.2 mg/kg
Kappa receptors; [3]
  ED50: 1.04 mg/kg
[1]
  ED20: 0.08 mg/kg
Kappa receptor
  ED50: 0.3 mg/kg
Mu receptor
  ED50: 0.22 mg/kg

## CC1CN(CCc2cccs2)CCC1(C)c1cccc(O)c1 (stereo not drawn) [Example 38, trans-(±)-1-[2-(2-Thienyl)ethyl]-3,4-dimethyl-4-(3-hydroxyphenyl)piperidine hydrochloride]
Kappa receptors; [3]
  ED50: 2 mg/kg
Kappa receptor
  ED50: 0.25 mg/kg
Mu receptor
  ED50: 0.25 mg/kg
